Biological target: mitochondrial ATP synthase (DNP-stimulated Mg2+-ATPase), rat heart mitochondria (Rattus norvegicus, UniProt P10719+P15999)
Experiment: phosphate release from ATP
Type: biochemical

mitochondrial ATP synthase (DNP-stimulated Mg2+-ATPase), rat heart mitochondria, sequence (P10719 47-529): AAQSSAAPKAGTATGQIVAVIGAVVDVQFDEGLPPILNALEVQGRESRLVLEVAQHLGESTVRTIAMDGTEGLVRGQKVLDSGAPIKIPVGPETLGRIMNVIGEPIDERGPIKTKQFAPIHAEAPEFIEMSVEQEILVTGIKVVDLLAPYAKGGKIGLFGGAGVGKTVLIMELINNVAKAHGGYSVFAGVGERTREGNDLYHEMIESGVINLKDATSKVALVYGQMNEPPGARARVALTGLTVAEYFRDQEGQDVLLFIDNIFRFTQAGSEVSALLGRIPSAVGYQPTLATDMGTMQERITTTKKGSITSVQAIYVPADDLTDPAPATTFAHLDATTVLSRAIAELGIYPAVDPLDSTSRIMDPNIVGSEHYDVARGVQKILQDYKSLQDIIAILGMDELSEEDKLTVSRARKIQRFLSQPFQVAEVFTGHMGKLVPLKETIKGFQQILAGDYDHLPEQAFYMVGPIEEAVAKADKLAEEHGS
mitochondrial ATP synthase (DNP-stimulated Mg2+-ATPase), rat heart mitochondria, sequence (P15999 44-553): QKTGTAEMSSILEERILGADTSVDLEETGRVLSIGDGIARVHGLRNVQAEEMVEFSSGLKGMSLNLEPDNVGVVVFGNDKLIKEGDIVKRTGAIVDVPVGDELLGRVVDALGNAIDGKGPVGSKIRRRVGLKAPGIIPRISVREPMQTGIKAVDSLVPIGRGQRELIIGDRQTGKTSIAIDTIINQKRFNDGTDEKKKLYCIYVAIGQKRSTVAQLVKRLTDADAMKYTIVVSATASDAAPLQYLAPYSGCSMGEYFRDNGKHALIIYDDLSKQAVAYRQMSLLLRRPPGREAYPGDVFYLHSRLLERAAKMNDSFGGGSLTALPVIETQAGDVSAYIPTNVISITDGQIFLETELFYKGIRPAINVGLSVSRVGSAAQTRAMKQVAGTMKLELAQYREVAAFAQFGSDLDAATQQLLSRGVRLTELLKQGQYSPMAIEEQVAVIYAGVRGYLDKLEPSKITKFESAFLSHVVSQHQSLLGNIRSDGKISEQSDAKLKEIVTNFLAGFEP
mitochondrial ATP synthase (DNP-stimulated Mg2+-ATPase), rat heart mitochondria, sequence (P35435 whole entry partner): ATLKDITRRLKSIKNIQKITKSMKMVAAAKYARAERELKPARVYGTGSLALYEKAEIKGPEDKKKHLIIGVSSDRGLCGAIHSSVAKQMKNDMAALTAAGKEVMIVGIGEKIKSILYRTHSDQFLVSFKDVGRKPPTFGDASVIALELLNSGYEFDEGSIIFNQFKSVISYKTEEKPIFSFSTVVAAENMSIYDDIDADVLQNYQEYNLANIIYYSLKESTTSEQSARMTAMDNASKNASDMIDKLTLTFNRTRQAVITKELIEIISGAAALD
mitochondrial ATP synthase (DNP-stimulated Mg2+-ATPase), rat heart mitochondria, sequence (P35434 23-168 partner): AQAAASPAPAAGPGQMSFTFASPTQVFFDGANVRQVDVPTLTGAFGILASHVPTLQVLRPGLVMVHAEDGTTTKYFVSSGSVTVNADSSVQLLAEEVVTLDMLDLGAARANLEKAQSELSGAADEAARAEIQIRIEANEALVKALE
mitochondrial ATP synthase (DNP-stimulated Mg2+-ATPase), rat heart mitochondria, sequence (P29418 2-51 partner): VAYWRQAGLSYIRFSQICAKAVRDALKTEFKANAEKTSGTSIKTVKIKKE
mitochondrial ATP synthase (DNP-stimulated Mg2+-ATPase), rat heart mitochondria, sequence (Q06647 24-213 partner): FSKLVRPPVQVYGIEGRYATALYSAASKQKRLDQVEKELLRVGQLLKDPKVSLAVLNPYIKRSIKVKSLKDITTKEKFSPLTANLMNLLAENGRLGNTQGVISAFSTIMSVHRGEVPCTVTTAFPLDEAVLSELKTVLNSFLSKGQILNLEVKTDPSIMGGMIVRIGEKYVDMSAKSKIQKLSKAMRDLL

inhibition at 450 µM (read-out: % inhibition at 0.45 mmol/l)	inhibition at 15 µM (read-out: % inhibition at 0.015 mmol/l)	SMILES
97.4%		C[C@H](CS)C(=O)N1CCC[C@H]1C(=O)O [captopril]
	33%	COC(=O)C1=C(C)NC(C)=C(C(=O)OC)C1c1ccccc1[N+](=O)[O-] [nifedipine]
